The assay deals with Adenosine A2A receptor (Homo sapiens, UniProt P29274). Briefly: cAMP assay in 293A cells stably expressing the adenosine A2A receptor (CGS21680 stimulation, HTRF). Type of assay: cell-based. Set-up: expressed in transfected cells; host or cells: 293A cells (Invitrogen, Cat# R705-07) infected with A2A-expressing lentivirus (custom packaged by Biosettia), puromycin selected. Particulars: 293A-A2AR cells, 0.1% BSA, 1 uM CGS; read-out: cAMP (nM) 0.1% BSA, 1 uM CGS. How it is done:
A 293A cell line (Invitrogen, Cat# R705-07) stably expressing the adenosine A2A receptor was generated in house. Briefly, 293A cells were seeded in 6-well plate and infected with A2A expressing lentivirus (custom packaged by Biosettia) and selected with puromycin (1 ug/ml). Cells survived selection were confirmed for A2A expression by RT-qPCR (RT Reagent: High-Capacity cDNA Reverse Transcription Kit, Applied Biosystems/Thermo Fisher Cat# 4368814, qPCR reagent: SYBR™ Green Master Mix, Applied Biosystems/Thermo Fisher Cat# 4309155). The cells were maintained in DMEM/F12 medium containing 10% FBS, 100 units/ml Penicillin, 100 μg/ml Streptomycin, and 1 μg/ml puromycin at 37° C., 5% CO2. 293A-A2AR cells were harvested on the day of assay and resuspended at 0.6 million cells/ml in DMEM/F12 with 0.1% BSA and 30 U/ml denosine deaminase(Roche, Cat #: 10102121001). Serial dilutions of compounds were prepared in DMEM/F12 with 0.1% BSA to a DMSO concentration of 0.6%. After 4 μl of compound dilutions were added, 4 μl suspended cells were dispensed into low-volume white 384-well plates (Greiner Bio-One). […] The assay plate was then incubated at room temperature for 30 min. 3 μl of d2 conjugated cAMP and 3 μl cryptate conjugated anti-cAMP antibody were then added. D2 conjugated cAMP and cryptate conjugated anti-cAMP antibody (Cisbio, Cat #: 62AM6PEC) were both prepared in cell lysis buffer according to the manufacturer's instruction. After 1 h incubation at room temperature, plates were read in CIARIOstar plate reader (BMG Labtech) using the HTRF detection mode.

Each structure is given as a SMILES string. “And” between values parts separate entries of the source, which are not always exact repeats. Equal values may be shown once.

The record followed here is patent US20210355104A1, “ADENOSINE RECEPTOR BINDING COMPOUNDS” (Nikang Therapeuticsm Inc., priority 2018, published 2021).

Sequence of Adenosine A2A receptor (P29274 whole entry): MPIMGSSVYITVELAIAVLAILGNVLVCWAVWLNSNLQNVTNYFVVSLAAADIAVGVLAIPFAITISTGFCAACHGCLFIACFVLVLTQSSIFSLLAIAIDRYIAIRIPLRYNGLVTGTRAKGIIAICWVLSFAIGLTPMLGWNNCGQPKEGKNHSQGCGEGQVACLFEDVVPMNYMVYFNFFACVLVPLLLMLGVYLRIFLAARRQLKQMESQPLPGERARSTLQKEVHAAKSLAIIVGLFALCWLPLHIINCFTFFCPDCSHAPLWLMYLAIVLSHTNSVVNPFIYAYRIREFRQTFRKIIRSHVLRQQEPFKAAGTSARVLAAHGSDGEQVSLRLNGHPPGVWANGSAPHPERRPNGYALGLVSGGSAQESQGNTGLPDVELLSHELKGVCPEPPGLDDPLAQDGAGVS

As for `CCc1nn(C[C@@H](O)CO)nc1COc1nc(N)nc(-c2ccc(F)cc2)c1-c1cc(C)nc(C(F)F)c1` [Example 288, (R)-3-(4-(((2-amino-5-(2-(difluoromethyl)-6-methylpyridin-4-yl)-6-(4-fluorophenyl)pyrimidin-4-yl)oxy)methyl)-5-ethyl-2H-1,2,3-triazol-2-yl)propane-1,2-diol], the IC50 turned out to be 2390 nM.

Turning to `CCc1c(COc2nc(N)nc(-c3ccc(F)cc3)c2-c2cc(C)nc(C(F)F)c2)nnn1C[C@@H](O)CO` [Example 289, (R)-3-(4-(((2-amino-5-(2-(difluoromethyl)-6-methylpyridin-4-yl)-6-(4-fluorophenyl)pyrimidin-4-yl)oxy)methyl)-5-ethyl-1H-1,2,3-triazol-1-yl)propane-1,2-diol], the IC50 was found to be 2090 nM.

As to `CCc1nnn(C[C@@H](O)CO)c1COc1nc(N)nc(-c2ccc(F)cc2)c1-c1cc(C)nc(C(F)F)c1` [Example 290], the IC50 stood at 1310 nM.

Turning to `Cc1cc(-c2c(OCc3nnn(CC(C)(C)O)n3)nc(N)nc2-c2ccc(F)cc2)cc(C(F)F)n1` [Example 291, 1-(5-(((2-amino-5-(2-(difluoromethyl)-6-methylpyridin-4-yl)-6-(4-fluorophenyl)pyrimidin-4-yl)oxy)methyl)-2H-tetrazol-2-yl)-2-methylpropan-2-ol], the IC50 was 5490 nM.

`Cc1cc(-c2c(OCc3nnnn3CC(C)(C)O)nc(N)nc2-c2ccc(F)cc2)cc(C(F)F)n1` [Example 292, 1-(5-(((2-amino-5-(2-(difluoromethyl)-6-methylpyridin-4-yl)-6-(4-fluorophenyl)pyrimidin-4-yl)oxy)methyl)-1H-tetrazol-1-yl)-2-methylpropan-2-ol]: the IC50 came out at 708 nM.

Consider `Cc1cc(-c2c(OCc3cccc(N4CC(C(=O)O)C4)n3)nc(N)nc2-c2ccc(F)cc2)cc(C(F)F)n1` [Example 293, 1-(6-(((2-amino-5-(2-(difluoromethyl)-6-methylpyridin-4-yl)-6-(4-fluorophenyl)pyrimidin-4-yl)oxy)methyl)pyridin-2-yl)azetidine-3-carboxylic acid], for which the IC50 was 4350 nM.

In the case of `Cc1cc(-c2c(OCc3cccc(N4CCC[C@@H]4C(=O)O)n3)nc(N)nc2-c2ccc(F)cc2)cc(C(F)F)n1` [Example 294, (6-(((2-amino-5-(2-(difluoromethyl)-6-methylpyridin-4-yl)-6-(4-fluorophenyl)pyrimidin-4-yl)oxy)methyl)pyridin-2-yl)-D-proline], the IC50 turned out to be 19700 nM.

Consider `Cc1cc(-c2c(OCc3cccc(C(C)(C)OCC(=O)O)n3)nc(N)nc2-c2ccc(F)cc2)cc(C(F)F)n1` [Example 296, 2-((2-(6-(((2-amino-5-(2-(difluoromethyl)-6-methylpyridin-4-yl)-6-(4-fluorophenyl)pyrimidin-4-yl)oxy)methyl)pyridin-2-yl)propan-2-yl)oxy)acetic acid], for which the IC50 came out at 3630 nM.

`Cc1cc(-c2c(-c3ccc(F)cc3)nc(N)nc2-c2cn(Cc3cccc(C(C)(C)O)n3)nn2)cc(C(F)F)n1` [Example 298, 2-(6-((4-(2-amino-5-(2-(difluoromethyl)-6-methylpyridin-4-yl)-6-(4-fluorophenyl)pyrimidin-4-yl)-1H-1,2,3-triazol-1-yl)methyl)pyridin-2-yl)propan-2-ol]: the IC50 is greater than 10000 nM.

As to `Cc1cc(-c2c(OCCc3cccnc3)nc(N)nc2-c2ccc(F)cc2)cc(C(F)F)n1` [Example 299, 5-(2-(difluoromethyl)-6-methylpyridin-4-yl)-4-(4-fluorophenyl)-6-(2-(pyridin-3-yl)ethoxy)pyrimidin-2-amine], the IC50 worked out at 1110 nM.

For the molecule `CCc1nn(CC(C)(C)C(=O)O)nc1COc1nc(N)nc(-c2ccc(F)cc2)c1-c1cc(C)nc(C(F)F)c1` [Example 300, 3-(4-(((2-amino-5-(2-(difluoromethyl)-6-methylpyridin-4-yl)-6-(4-fluorophenyl)pyrimidin-4-yl)oxy)methyl)-5-ethyl-2H-1,2,3-triazol-2-yl)-2,2-dimethylpropanoic acid], the IC50 was greater than 10000 nM.

On to `CCc1nnn(CC(C)(C)C(=O)O)c1COc1nc(N)nc(-c2ccc(F)cc2)c1-c1cc(C)nc(C(F)F)c1` [Example 301, 3-(5-(((2-amino-5-(2-(difluoromethyl)-6-methylpyridin-4-yl)-6-(4-fluorophenyl)pyrimidin-4-yl)oxy)methyl)-4-ethyl-1H-1,2,3-triazol-1-yl)-2,2-dimethylpropanoic acid], for which the IC50 is greater than 10000 nM.

As for `CCc1c(COc2nc(N)nc(-c3ccc(F)cc3)c2-c2cc(C)nc(C(F)F)c2)nnn1CC(C)(C)C(=O)O` [Example 302, 3-(4-(((2-amino-5-(2-(difluoromethyl)-6-methylpyridin-4-yl)-6-(4-fluorophenyl)pyrimidin-4-yl)oxy)methyl)-5-ethyl-1H-1,2,3-triazol-1-yl)-2,2-dimethylpropanoic acid], the IC50 is greater than 10000 nM.

`Cc1cc(-c2c(OCc3cccc(C(O)CO)n3)nc(N)nc2-c2ccc(F)cc2)cc(C(F)F)n1` (stereo not drawn) [Example 303, 1-(6-(((2-amino-5-(2-(difluoromethyl)-6-methylpyridin-4-yl)-6-(4-fluorophenyl)pyrimidin-4-yl)oxy)methyl)pyridin-2-yl)ethane-1,2-diol]: the IC50 worked out at 965 nM.

Take `Cc1cc(-c2c(OCCOc3cccc(CO)n3)nc(N)nc2-c2ccc(F)cc2)cc(C(F)F)n1` [Example 304, (6-(2-((2-amino-5-(2-(difluoromethyl)-6-methylpyridin-4-yl)-6-(4-fluorophenyl)pyrimidin-4-yl)oxy)ethoxy)pyridin-2-yl)methanol]: the IC50 is 681 nM.

As for `Cc1cc(-c2c(OCc3ccnc(N(C)C)n3)nc(N)nc2-c2ccc(F)cc2)cc(C(F)F)n1` [Example 307, 4-(((2-amino-5-(2-(difluoromethyl)-6-methylpyridin-4-yl)-6-(4-fluorophenyl)pyrimidin-4-yl)oxy)methyl)-N,N-dimethylpyrimidin-2-amine], the IC50 was 211 nM and 246 nM.

Take `Cc1cc(-c2c(OCc3ccnc(C(C)(C)O)n3)nc(N)nc2-c2ccc(F)cc2)cc(C(F)F)n1` [Example 308]: the IC50 was 164 nM and 197 nM and 159 nM and 113 nM.

For the molecule `Cc1cc(-c2c(OCc3cccc(N4CC[C@H](C(=O)O)C4)n3)nc(N)nc2-c2ccc(F)cc2)cc(C(F)F)n1` [Example 309, (S)-1-(6-(((2-amino-5-(2-(difluoromethyl)-6-methylpyridin-4-yl)-6-(4-fluorophenyl)pyrimidin-4-yl)oxy)methyl)pyridin-2-yl)pyrrolidine-3-carboxylic acid], the IC50 was 1370 nM.

In the case of `Cc1cc(-c2c(OCc3cccc(N4CC[C@@H](C(=O)O)C4)n3)nc(N)nc2-c2ccc(F)cc2)cc(C(F)F)n1` [Example 310, (R)-1-(6-(((2-amino-5-(2-(difluoromethyl)-6-methylpyridin-4-yl)-6-(4-fluorophenyl)pyrimidin-4-yl)oxy)methyl)pyridin-2-yl)pyrrolidine-3-carboxylic acid], the IC50 came to 2490 nM.

`Cc1cc(-c2c(OCc3cccc(N4CCC[C@H]4C(=O)O)n3)nc(N)nc2-c2ccc(F)cc2)cc(C(F)F)n1` [Example 311, (6-(((2-amino-5-(2-(difluoromethyl)-6-methylpyridin-4-yl)-6-(4-fluorophenyl)pyrimidin-4-yl)oxy)methyl)pyridin-2-yl)-L-proline]: the IC50 was greater than 10000 nM.

As for `Cc1cc(-c2c(-c3cn(Cc4cccc(C(C)(C)O)n4)nn3)nc(N)nc2-c2cccc(C#N)c2C)cc(C(F)F)n1` [Example 312, 3-(2-amino-5-(2-(difluoromethyl)-6-methylpyridin-4-yl)-6-(1-((6-(2-hydroxypropan-2-yl)pyridin-2-yl)methyl)-1H-1,2,3-triazol-4-yl)pyrimidin-4-yl)-2-methylbenzonitrile], the IC50 came to 16600 nM.

As to `CCc1nn(C[C@H](O)CO)nc1COc1nc(N)nc(-c2ccc(F)cc2)c1-c1cc(C)nc(C(F)F)c1` [Example 316, (S)-3-(4-(((2-amino-5-(2-(difluoromethyl)-6-methylpyridin-4-yl)-6-(4-fluorophenyl)pyrimidin-4-yl)oxy)methyl)-5-ethyl-2H-1,2,3-triazol-2-yl)propane-1,2-diol], the IC50 came out at 1080 nM.

In the case of `CCc1c(COc2nc(N)nc(-c3ccc(F)cc3)c2-c2cc(C)nc(C(F)F)c2)nnn1C[C@H](O)CO` [Example 317, (S)-3-(4-(((2-amino-5-(2-(difluoromethyl)-6-methylpyridin-4-yl)-6-(4-fluorophenyl)pyrimidin-4-yl)oxy)methyl)-5-ethyl-1H-1,2,3-triazol-1-yl)propane-1,2-diol], the IC50 is 1430 nM.

Consider `CCc1nnn(C[C@H](O)CO)c1COc1nc(N)nc(-c2ccc(F)cc2)c1-c1cc(C)nc(C(F)F)c1` [Example 318, (S)-3-(5-(((2-amino-5-(2-(difluoromethyl)-6-methylpyridin-4-yl)-6-(4-fluorophenyl)pyrimidin-4-yl)oxy)methyl)-4-ethyl-1H-1,2,3-triazol-1-yl)propane-1,2-diol], for which the IC50 is 1350 nM.
